Laboratory results reported in PubChem BioAssay (NCI).
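Values below derive from 48-hour exposures of cells grown in 96-well plates, with endpoints linearly interpolated between the two concentrations bracketing the appropriate inhibition level. TGI denotes the concentration required for complete inhibition of growth.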

Assays:
Test in all cases: NCI anticancer screen, dose series, 48 h
COLO 205 colon = system: COLO 205 colon
A549 NSCLC = system: A549 NSCLC
OVCAR-4 ovarian = system: OVCAR-4 ovarian
SN12C renal = system: SN12C renal
NCI-H23 lung = system: NCI-H23 lung
UACC-257 melanoma = system: UACC-257 melanoma
SF-539 CNS = system: SF-539 CNS
RXF 393 renal = system: RXF 393 renal
HCC-2998 colon = system: HCC-2998 colon
786-0 renal = system: 786-0 renal

| SMILES | TGI (COLO 205 colon) [µM] | TGI (A549 NSCLC) [µM] | TGI (OVCAR-4 ovarian) [µM] | TGI (SN12C renal) [µM] | TGI (NCI-H23 lung) [µM] | TGI (UACC-257 melanoma) [µM] | TGI (SF-539 CNS) [µM] | TGI (RXF 393 renal) [µM] | TGI (HCC-2998 colon) [µM] | TGI (786-0 renal) [µM] |
| --- | --- | --- | --- | --- | --- | --- | --- | --- | --- | --- |
| CC(C)C1CC[C@H](C)C[C@@H]1OC(=O)C(C(=O)O[C@H]1C[C@@H](C)CCC1C(C)C)C(O)[C@@H]1OC(C)(C)O[C@H]1C1COC(C)(C)O1 (some centres undefined) | 28.2 | 66.6 | 50.9 | 30 | 31.9 | 78.2 | 49.5 | 28.9 | 26.7 | 31.7 |
| O=C1c2ccccc2C(=O)c2c(O)ccc(O)c21 | > 100 | > 100 | > 100 | > 100 | > 100 | > 100 | > 100 | > 100 | > 100 | > 100 |
| CC(=O)NC(Cc1ccc(OP(=O)(OCc2ccc([N+](=O)[O-])o2)N(C)CCCCCl)cc1)C(=O)NC(C)c1ccc(OCC2CCCCC2)c(C(N)=O)c1 (centres undefined) | 3.68 | 18.2 | 11.9 | 6.53 | 6.3 | 3.78 | 4.35 | 5.68 | 3.42 | 12.4 |
| N#Cc1nc(CCC(c2nc(C#N)c(N)o2)N2C(=O)c3ccccc3C2=O)oc1N (centres undefined) | > 100 | > 100 | > 100 | > 100 | > 100 | > 100 | > 100 | > 100 | > 100 | > 100 |
| C=CCN(c1cc(OC)c2[nH]cc(C)c2c1[N+](=O)[O-])S(C)(=O)=O | > 100 | > 100 | > 100 | > 100 | > 100 | > 100 | > 100 | > 100 | > 100 | > 100 |
| COC(=O)c1cc(C(=CCC[C@H]2CC[C@@]3(C)C(CCC4C3CC[C@@]3(C)C4CC[C@@H]3C(C)CCCC(C)C)C2)c2cc(Cl)c(OC(=O)c3ccccc3)c(C(=O)OC)c2)cc(Cl)c1OC(=O)c1ccccc1 (some centres undefined) | > 10 | > 10 | > 10 | > 10 | > 10 | > 10 | > 10 | > 10 | > 10 | > 10 |
| Cc1cc2nc(N3C(=O)/C(=C/c4ccc(Cl)cc4)N=C3c3ccccc3)sc2cc1C | 43.3 | > 100 | 91.8 | 87.6 | – | > 100 | > 100 | 57.9 | 48.5 | 92.1 |
| O=[N+]([O-])c1ccc(Cl)cc1N/N=C/c1cccc2cccnc12 | > 100 | > 100 | > 100 | > 100 | > 100 | > 100 | > 100 | > 100 | > 100 | > 100 |
| COc1cc2c(cc1OCCCC(=O)Nc1cc(C(=O)NCCCN(C)C)n(C)n1)N=CC1CCCN1C2=O (centres undefined) | > 23 | > 41.6 | 14.1 | > 24.6 | > 26.2 | 19.2 | 22.1 | > 75.6 | 28.3 | > 23.5 |
| COc1cc2c(cc1OC)-c1cc3cc(OC)c(OC)cc3c(=O)n1CC2 | > 100 | > 100 | > 100 | > 100 | > 100 | > 78.4 | 50.9 | > 69.8 | > 100 | > 100 |
